The record followed here is PubChem BioAssay (NCI).

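In this assay, cells in 96-well plates receive the compound at five concentrations for 48 hours. Endpoints are linearly interpolated between the surrounding concentrations. Here, GI50 denotes the concentration required for 50% inhibition of growth. TGI: total growth inhibition.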

Among the test systems are ACHN renal; HCT-116 colon; HCT-15 colon; HT29 colon; MOLT-4 leukemia; OVCAR-4 ovarian; SF-295 CNS; SN12C renal; SR leukemia; UO-31 renal.
Test in all cases: DTP human tumour cell line panel, 48 h

By GI50 is commonly meant the concentration at which growth is held to half of that of the control. What is called TGI is the concentration giving total growth inhibition. A low value points to greater sensitivity of the cells.

As to `O=C(NCCNc1nccc(-c2c(-c3cccc(O)c3)nc3sccn23)n1)Nc1cccc(C(F)(F)F)c1`, the GI50 is 5.79 µM with ACHN renal; 3.56 µM in the experiment with HCT-116 colon; 4.26 µM in the experiment with HCT-15 colon; 3.45 µM in the experiment with HT29 colon; 3.6 µM with MOLT-4 leukemia; 3.97 µM with OVCAR-4 ovarian. Further, the GI50 was 4.16 µM in the experiment on SF-295 CNS, 3.42 µM in the experiment on SN12C renal, 6.08 µM in the experiment on SR leukemia and 3.25 µM in the experiment with UO-31 renal. In addition, the TGI in the experiment on ACHN renal was 45.7 µM; with HCT-116 colon, 11.5 µM; with HCT-15 colon it was 24.1 µM; in the experiment with HT29 colon, 10.8 µM; in the experiment with MOLT-4 leukemia, 14.6 µM; in the experiment on OVCAR-4 ovarian it was 14.2 µM. The TGI turned out to be 29.7 µM with SF-295 CNS, 20 µM in the experiment on SN12C renal, 40 µM in the experiment on SR leukemia and 16.8 µM in the experiment with UO-31 renal.
